Experimental data published in patent US20260159536A1, “AKR1C3-ACTIVATED DNA ALKYLATING AGENT, AND MEDICAL APPLICATION THEREOF” (ASCENTAWITS PHARMACEUTICALS, LTD., priority 2021, published 2026).
Where two headings read alike, the source gives them in different places.

How the values were obtained:
[1] = test system: HuPrime model GA6201 human gastric cancer; conditions: for Tumor volume: 60 mg/kg i.p.
Method: The test was divided into groups of the test drug Isocyclophosphamide 60 mg/kg group, the test drug AST-3424 5 mg/kg group, the test drug A compound 2.5 mg/kg and 5 mg/kg groups, and normal saline (pH 7.0-7.6) vehicle control group, a total of 5 groups, with 5 mice per group.
In the above dosing regimen, Isocyclophosphamide was designed based on the best dosing regimen with maximum safe dosage as recited in the document (Jessica D. Sun, Qian Liu, Dharmendra Ahluwalia, Damien J. Ferraro, Yan Wang, Don Jung, Mark D. Matteucci, and Charles P. Hart. Comparison of hypoxia-activated prodrug evofosfamide (TH-302) and ifosfamide in preclinical non-small cell lung cancer models [J]. Cancer Biology & Therapy, 2016, 17(4): 371-380).

in vitro = conditions: for metabolite AST-2660 detection: from Compound A
Method: (1) Compound A for test, progesterone positive control, and 100 mM stock solutions of AST-3021 inhibitor were prepared and stored in the freezer (−10° C. to −30° C.).
1) Negative control group: at different time points (0 and 60 min), 30 μL/well of hepatocyte cytosol suspension containing 7.5 μM of sample for test was distributed in a 96-well plate. Three replicate wells were prepared in parallel.
2) Positive control group: at different time points (0, 5, 15, 30, 45 and 60 min), 30 μL/well of hepatocyte cytosol suspension containing 7.5 μM of the positive control was distributed in a 96-well plate. Three replicate wells were prepared in parallel.
3) Normal reaction group: at different time points (0, 5, 15, 30, 45 and 60 min), 30 μL/well of hepatocyte cytosol suspension containing 7.5 μM of sample for test was distributed in a 96-well plate. Three replicate wells were prepared in parallel.
4) Inhibition reaction group: at different time points (0, 5, 15, 30, 45 and 60 min), 30 μL/well of hepatocyte cytosol suspension containing […] of sample for test and 4.5 μM of the inhibitor was distributed in a 96-well plate. Three replicate wells were prepared in parallel.
6) 0 min samples: after 150 μL/well of acetonitrile containing the internal standard was added, then 15 μL/well of pre-heated NADPH working solution was added to the samples of normal reaction group, inhibition reaction group and positive control group, and 15 μL/well of pre-heated potassium phosphate buffer was added to the samples of negative control group.
7) Other samples (5, 15, 30, 45 and 60 min): for normal reaction group, inhibition reaction group and positive control group, 15 μL/well of pre-heated NADPH working solution was added to start the reaction; for negative control group, 15 μL/well of pre-heated potassium phosphate buffer was added. The reaction plates were then continued to incubate in a 37° C. water bath and the reactions were stopped by the addition of 150 μL/well of stop solution at the corresponding time points (5, 15, 30, 45 and 60 min).
The concentration of analyte in each sample was expressed as a peak area ratio (peak area analyte/peak areainternal standard), then the peak area ratio at 0 min was used as a reference to calculate the % Remaining at each time point of the incubation, and the ln logarithmic value of the % Remaining was linearly fitted to the incubation time and the half-life was calculated according to the following formula.
In the absence of AST-3021, 5 μM of progesterone was co-incubated with 2 mM of NADPH and 1 mg/mL of hepatocyte cytosol for 0-60 min as a positive control.

[2] = 60 mg/kg i.p. 5 days on, 2 days off, 2 weeks, Day 38

O=P1(NCCCl)OCCCN1CCCl (centres unmarked) [Isocyclophosphamide, reference compound]
Relative tumor volume (x ± S) [1, 2]: 3.85 ± 0.63 | T/C (%) [1, 2]: 41.17% | TGI (%) [1, 2]: 58.83% | Tumor volume (x ± S) [1, 2]: 371.02 ± 75.96 | Tumor volume ([1]; 0 day): 94.15 mm^3 | Tumor volume ([1]; 3 days): 122.22 mm^3 | Tumor volume ([1]; 7 days): 129.39 mm^3 | Tumor volume ([1]; 10 days): 175.00 mm^3 | Tumor volume ([1]; 14 days): 190.74 mm^3 | Tumor volume ([1]; 17 days): 189.23 mm^3 | Tumor volume ([1]; 21 days): 217.96 mm^3 | Tumor volume ([1]; 24 days): 225.66 mm^3 | Tumor volume ([1]; 28 days): 247.04 mm^3 | Tumor volume ([1]; 31 days): 265.76 mm^3 | Tumor volume ([1]; 35 days): 324.51 mm^3 | Tumor volume ([1]; 38 days): 371.02 mm^3 | Tumor volume ([1]; 42 days): 403.47 mm^3 | Tumor volume ([1]; 45 days): 484.83 mm^3 | Tumor volume ([1]; 49 days): 578.60 mm^3

CC(=O)[C@H]1CC[C@H]2[C@@H]3CCC4=CC(=O)CC[C@]4(C)[C@H]3CC[C@]12C [Progesterone]
half-life at 5 µM (in vitro; CD-1, mouse, hepatocyte cytosol, Metabolic parameter t1/2, mouse, 2 mM NADPH, no AST-3021 (normal reaction / positive control group), 5 μM): 37.7 min | half-life at 5 µM (in vitro; SD, rat, hepatocyte cytosol, Metabolic parameter t1/2, rat, 2 mM NADPH, no AST-3021 (normal reaction / positive control group), 5 μM): 22.3 min | half-life at 5 µM (in vitro; cynomolgus (printed as 'machins'), monkey, cytosol): 13.2 min | Metabolic parameter k (in vitro; human, 2 mM NADPH, no AST-3021 (normal reaction / positive control group), 5 μM): 0.0543 | average % Remaining (in vitro; human, 2 mM NADPH, no AST-3021 (normal reaction / positive control group), 5 μM, 0 min): 100.00% | average % Remaining (in vitro; human, 2 mM NADPH, no AST-3021 (normal reaction / positive control group), 5 μM, 5 min): 80.76% | average % Remaining (in vitro; human, 2 mM NADPH, no AST-3021 (normal reaction / positive control group), 5 μM, 15 min): 55.69% | average % Remaining (in vitro; human, 2 mM NADPH, no AST-3021 (normal reaction / positive control group), 5 μM, 30 min): 20.59% | average % Remaining (in vitro; human, 2 mM NADPH, no AST-3021 (normal reaction / positive control group), 5 μM, 45 min): 7.72% | average % Remaining (in vitro; human, 2 mM NADPH, no AST-3021 (normal reaction / positive control group), 5 μM, 60 min): 0.46% | Metabolic parameter k (in vitro; monkey, 2 mM NADPH, no AST-3021 (normal reaction / positive control group), 5 μM): 0.0525 | average % Remaining (in vitro; monkey, 2 mM NADPH, no AST-3021 (normal reaction / positive control group), 5 μM, 0 min): 100.00% | average % Remaining (in vitro; monkey, 2 mM NADPH, no AST-3021 (normal reaction / positive control group), 5 μM, 5 min): 82.47% | average % Remaining (in vitro; monkey, 2 mM NADPH, no AST-3021 (normal reaction / positive control group), 5 μM, 15 min): 59.82% | average % Remaining (in vitro; monkey, 2 mM NADPH, no AST-3021 (normal reaction / positive control group), 5 μM, 30 min): 28.19% | average % Remaining (in vitro; monkey, 2 mM NADPH, no AST-3021 (normal reaction / positive control group), 5 μM, 45 min): 10.01% | average % Remaining (in vitro; monkey, 2 mM NADPH, no AST-3021 (normal reaction / positive control group), 5 μM, 60 min): 3.26% | Metabolic parameter k (in vitro; mouse, 2 mM NADPH, no AST-3021 (normal reaction / positive control group), 5 μM): 0.0184 | average % Remaining (in vitro; mouse, 2 mM NADPH, no AST-3021 (normal reaction / positive control group), 5 μM, 0 min): 100.00% | average % Remaining (in vitro; mouse, 2 mM NADPH, no AST-3021 (normal reaction / positive control group), 5 μM, 5 min): 89.61% | average % Remaining (in vitro; mouse, 2 mM NADPH, no AST-3021 (normal reaction / positive control group), 5 μM, 15 min): 78.52% | average % Remaining (in vitro; mouse, 2 mM NADPH, no AST-3021 (normal reaction / positive control group), 5 μM, 30 min): 62.61% | average % Remaining (in vitro; mouse, 2 mM NADPH, no AST-3021 (normal reaction / positive control group), 5 μM, 45 min): 44.84% | average % Remaining (in vitro; mouse, 2 mM NADPH, no AST-3021 (normal reaction / positive control group), 5 μM, 60 min): 31.03% | Metabolic parameter k (in vitro; rat, 2 mM NADPH, no AST-3021 (normal reaction / positive control group), 5 μM): 0.0311 | average % Remaining (in vitro; rat, 2 mM NADPH, no AST-3021 (normal reaction / positive control group), 5 μM, 0 min): 100.00% | average % Remaining (in vitro; rat, 2 mM NADPH, no AST-3021 (normal reaction / positive control group), 5 μM, 5 min): 84.80% | average % Remaining (in vitro; rat, 2 mM NADPH, no AST-3021 (normal reaction / positive control group), 5 μM, 15 min): 69.77% | average % Remaining (in vitro; rat, 2 mM NADPH, no AST-3021 (normal reaction / positive control group), 5 μM, 30 min): 45.51% | average % Remaining (in vitro; rat, 2 mM NADPH, no AST-3021 (normal reaction / positive control group), 5 μM, 45 min): 21.61% | average % Remaining (in vitro; rat, 2 mM NADPH, no AST-3021 (normal reaction / positive control group), 5 μM, 60 min): 4.70%

O=P(O)(N1CC1)N1CC1 [AST-2660]
metabolite AST-2660 detection (in vitro; human, no NADPH, no AST-3021): not detected | metabolite AST-2660 detection (in vitro; human, with NADPH): a small amount | metabolite AST-2660 detection (in vitro; human, with NADPH and AST-3021): not detected | metabolite AST-2660 detection (in vitro; monkey, no NADPH, no AST-3021): not detected | metabolite AST-2660 detection (in vitro; monkey, with NADPH): a small amount | metabolite AST-2660 detection (in vitro; monkey, with NADPH and AST-3021): detected in only one monkey 60-min sample | metabolite AST-2660 detection (in vitro; mouse, no NADPH, no AST-3021): not detected | metabolite AST-2660 detection (in vitro; mouse, with NADPH): not detected | metabolite AST-2660 detection (in vitro; mouse, with NADPH and AST-3021): not detected | metabolite AST-2660 detection (in vitro; rat, no NADPH, no AST-3021): not detected | metabolite AST-2660 detection (in vitro; rat, with NADPH): not detected | metabolite AST-2660 detection (in vitro; rat, with NADPH and AST-3021): not detected
